Source: US20080003305A1, “PROCESS AND COMPOSITIONS FOR THE DISINFECTION OF WATERS” (BROMINE COMPOUNDS LIMITED, priority 1991, published 2008)

Assays:
Pseudomonas sp. = assay: Efficacy in buffer at pH-7.5 against Pseudomonas sp.; assay type: cell-based; conditions: buffer pH 7.5, 1 ppm as Cl2
Experimental: Efficacy in Buffer at pH-7.5 against Pseudomonas sp.
Chlorine demand: 0.1 ppm out of 1 ppm within 20 minutes
NH4Br+NaOCl: stock concentration: 1000 ppm as Cl2
Preparation of stock solution: NH4Br was dissolved in de-ionized water (2761 ppm). NaOCl (2000 ppm as Cl2) was quickly added dropwise to the ammonium bromide solution while stirring the mixture. The stock solution was used immediately.

bacillus mycoides = assay: Efficacy of ammonium bromide at various pHs; assay type: cell-based; conditions: 2 ppm as Cl2
Experimental: Efficacy of Ammonium Bromide at Various pHs
Examined MO: bacillus mycoides
NH4Br+NaOCl: molar ratio 1:1; stock concentration: 0.5%;
NH4Br+NaOCl was either pre-mixed or added in situ to the buffer.
Demand: 1.8 ppm out of 2 ppm of Cl2 within 60 minutes.

[1] = tested on: MOs in starch sizing mixture; assay: Efficacy of oxidizing and non-oxidizing biocides in a starch sizing mixture (paper industry); assay type: cell-based; conditions: 30 ppm active ingredient, 60° C.
Experimental: Efficacy of Oxidizing and Non-Oxidizing Biocides is a Starch Sizing Mixture (Paper Industry)
Efficacy was measured at 60° C.
NH4Br+NaOCl: stock concentration 0.1%.
Dosage: 30 ppm active ingredient.
Incubation temperature 60° C.

total aerobic MOs = assay: Kinetics of kill in water from a citrus juice evaporator: total aerobic; assay type: cell-based; conditions: 30 ppm as Cl2
Experimental: (§1) Kinetics of Kill of Various Mixtures of Ammonium Salts Mixed with NaOCl in Water from a Citrus Juice Evaporator
(§2) Demand: Higher than 30 ppm out of 30 ppm of Cl2 during 10 minutes.
(§3) Stock concentration of NH4X+NaOCl: 0.1% as Cl2

total anaerobic MOs = assay: Kinetics of kill in water from a citrus juice evaporator: total anaerobic; assay type: cell-based; conditions: 30 ppm as Cl2
Experimental: as §1, §2, §3

[2] = Residue as Cl2 in water from a citrus juice evaporator; assay type: physicochemical; conditions: 30 ppm as Cl2
Experimental: as §1, §2, §3

[3] = tested on: total aerobic viable counts; assay: Efficacy of oxidizing biocides in water taken from a paper mill (thick stock of pulp slurry); assay type: cell-based; conditions: 15 mg/l as Cl2
Experimental: Efficacy of Oxidizing Biocides in Water Taken from a Paper Mill (Thick Stock of Pulp Slurry)
Microorganisms were incubated at 37° C. (total aerobic viable counts).
Concentration of stock solution: 0.1% as Cl2.

aerob. MOs = assay: Efficacy in domestic waste containing a high concentration of amines: aerobic MOs; assay type: cell-based; conditions: 60 ppm; contact time 10 minutes; N as NH3 50mg/l; pH 6.10
Experimental: (§4) Efficacy of a Series of Biocides in Domestic Waste Containing a High Concentration of Amines
(§5) Incubation temperature: 27° C.
(§6) Stock concentration: 0.2%

anaer. MOs = assay: Efficacy in domestic waste containing a high concentration of amines: anaerobic MOs; assay type: cell-based; conditions: 60 ppm; contact time 10 minutes; N as NH3 50mg/l; pH 6.10
Experimental: as §4, §5, §6

[4] = Residue as Cl2 in domestic waste containing a high concentration of amines; assay type: physicochemical; conditions: 60 ppm
Experimental: as §4, §5, §6

Fecal coli = assay: Efficacy of oxidizing biocides in domestic waste: fecal coli; assay type: cell-based; conditions: 20 ppm as Cl2; contact time 10 minutes
Experimental: (§7) Efficacy of Oxidizing Biocides in Domestic Waste
(§8) Non-treated domestic waste roughly filtered; contact time: 10 minutes.
(§9) Stock concentration: 0.5% as Cl2.

total count [5] = assay: Efficacy of oxidizing biocides in domestic waste: total count; assay type: cell-based; conditions: 20 ppm as Cl2; contact time 10 minutes
Experimental: as §7, §8, §9

[6] = Residue as Cl2 in domestic waste; assay type: physicochemical; conditions: 20 ppm as Cl2, contact time 10 minutes
Experimental: as §7, §8, §9

total count [7] = assay: Pre-mixing versus in situ addition of ammonium salts and NaOCl, water from a corn-processing plant; assay type: cell-based; conditions: 12 ppm, stock formed in water
Experimental: Pre-Mixing Versus in Situ Addition of Ammonium Salts and NaOCl
Water from a corn-processing plant; high demand for Cl2,
NH4Cl+NaOCl: stock concentration: 1%
NH4Br+NaOCl: stock concentration: 0.5%
Stock solutions were formed at pH 14.0; 7.0, 4.0 and in water.
For in situ addition: both NH4X and NaOCl were dissolved at the appropriate pH.

total count [8] = assay: Dependence of efficacy of NH4Br+NaOCl on the concentration of stock solution, industrial waste water; assay type: cell-based; conditions: no pre-mixed stock, 4 ppm as Cl2
Experimental: Dependence of Efficacy of Mixtures of NH4Br+NaOCl on the Concentrations of Stock Solution
Work was carried out in industrial waste water.
Stock concentrates were prepared in buffer at pH 7.00.
Biocidal dose: 4 ppm as Cl2.

[9] = tested on: fouling of size press filters; assay: Field experiment, starch sizing mixture (paper mill); conditions: NaOCl (10% as Cl2) fed every 8 hours, 30 liters per portion
Experimental: • Paper mill, starch sizing • Contained volume: 20 m^3 • Flow rate: 8.33 m^3/h. (6% starch in H2O), • pH about 8.0 • Temperature: 50° C.-70° C.
Sizing mixture is recirculated in a size press through a filter (80 microns). Circulation rate: 6 m^3/h. The sizing mixture had been previously treated with NaOCl (10% as Cl2), which was fed every 8 hours (30 liters per portion).
Use of NaOCl was replaced by the use of a mixture of NH4Br+NaOCl (stock concentration 0.5% as Cl2).

[Na+].[O-]Cl [NaOCl, sodium hypochlorite]
Survivors after time (minutes): 1 (Pseudomonas sp.; 1 minute): 4 × 10^6 cfu/ml
Survivors after time (minutes): 5 (Pseudomonas sp.; 5 minutes): 1 × 10^5 cfu/ml
Survivors after time (minutes): 10 (Pseudomonas sp.; 10 minutes): 4 × 10^2 cfu/ml
Survivors after time (minutes): 20 (Pseudomonas sp.; 20 minutes): 0 cfu/ml
Survivors pH-7.0 60 m (bacillus mycoides; pH 7.0, 60 m): 1 × 10^5 cfu/ml
Survivors pH-7.0 180 m (bacillus mycoides; pH 7.0, 180 m): 1 × 10^5 cfu/ml
Survivors pH-7.0 24 h (bacillus mycoides; pH 7.0, 24 h): 1 × 10^5 cfu/ml
Survivors pH-8.0 60 m (bacillus mycoides; pH 8.0, 60 m): 3 × 10^5 cfu/ml
Survivors pH-8.0 180 m (bacillus mycoides; pH 8.0, 180 m): 1 × 10^5 cfu/ml
Survivors pH-8.0 24 h (bacillus mycoides; pH 8.0, 24 h): 1 × 10^5 cfu/ml
Survivors pH-9.0 60 m (bacillus mycoides; pH 9.0, 60 m): 1 × 10^5 cfu/ml
Survivors pH-9.0 180 m (bacillus mycoides; pH 9.0, 180 m): 1 × 10^5 cfu/ml
Survivors pH-9.0 24 h (bacillus mycoides; pH 9.0, 24 h): 1 × 10^5 cfu/ml
Surviving MOs after time (hours): 4 ([1]; 4 hours): 4 × 10^3 cfu/ml
Surviving MOs after time (hours): 28 ([1]; 28 hours): 2 × 10^6 cfu/ml
Surviving MOs after time (hours): 48 ([1]; 48 hours): 3 × 10^6 cfu/ml
Surviving MOs after time (hours): 72 ([1]; 72 hours): 3 × 10^6 cfu/ml
Surviving MOs after time (minutes); total aerobic: 10 (total aerobic MOs; 10 minutes): 2 × 10^5 cfu/ml
Surviving MOs after time (minutes); total aerobic: 20 (total aerobic MOs; 20 minutes): 2 × 10^7 cfu/ml
Surviving MOs after time (minutes); total aerobic: 60 (total aerobic MOs; 60 minutes): 1 × 10^7 cfu/ml
Surviving MOs after time (minutes); (total anaerobic): 10 (total anaerobic MOs; 10 minutes): 8 × 10^4 cfu/ml
Surviving MOs after time (minutes); (total anaerobic): 20 (total anaerobic MOs; 20 minutes): 3 × 10^6 cfu/ml
residue as Cl2 free after time (minutes): 10 ([2]; free, 10 minutes): 0 (0)
residue as Cl2 free after time (minutes): 20 ([2]; free, 20 minutes): 0 (0)
residue as Cl2 free after time (minutes): 60 ([2]; free, 60 minutes): 0 (0)
residue as Cl2 (total) after time (minutes): 10 ([2]; total, 10 minutes): 0 (0)
residue as Cl2 (total) after time (minutes): 20 ([2]; total, 20 minutes): 0 (0)
residue as Cl2 (total) after time (minutes): 60 ([2]; total, 60 minutes): 0 (0)
Viable counts after time (minutes): 30 ([3]; 30 minutes): 6 × 10^3 cfu/ml
Viable counts after time (minutes): 70 ([3]; 70 minutes): 2 × 10^3 cfu/ml
Viable counts after time: 25 hours ([3]; 25 hours): 1 × 10^5 cfu/ml
Surviving MOs after 10 minutes aerob. (aerob. MOs): 9 × 10^2 cfu/ml
Surviving MOs after 10 minutes anaer. (anaer. MOs): 3 × 10^3 cfu/ml
Residue free as Cl2 after 10 minutes ([4]; free): 0.2
Residue (total) as Cl2 after 10 minutes ([4]; total): 1.5
Fecal coli (Fecal coli): 5 × 10^5 cfu/ml
total count (total count [5]): 6 × 10^6 cfu/ml
residue as Cl2 free ([6]; free): 0 (0) ppm
residue as Cl2 (total) ([6]; total): 0 (0) ppm
Survivors (total count) H2O, 60 minutes (total count [7]; 60 minutes): 2 × 10^6 cfu/ml
Survivors (total count) H2O, 180 minutes (total count [7]; 180 minutes): 2 × 10^6 cfu/ml
Survivors total count after time (minutes): 10 (total count [8]; 10 minutes): 9 × 10^5 cfu/ml
Survivors total count after time (minutes): 180 (total count [8]; 180 minutes): 7 × 10^5 cfu/ml
frequency of filter washing [9]: filters had to be washed once every two hours
